Laboratory results from patent US6683055B1, “Low molecular weight inhibitors of complement proteases” (BASF Aktiengesellschaft, priority 1999, dated 2004).

How the values were obtained:
Assay type in all cases: biochemical
factor D = molecular target: T1, factor D (Homo sapiens, UniProt P00746); assay: Inhibition of the protease factor D (Example D); conditions: substrate Z-Lys-SBzl, run along as inhibitor in the test
T1 construct: purchased Calbiochem 341273
Text: Example D Testing of Inhibitors for Inhibition of the Protease Factor D In the alternative route of the complement system, factor D performs a central function. Owing to the low plasma concentration of factor D, the enzymatic step involving the cleavage of factor B by factor D constitutes the rate-determining step in the alternative route of complement activation. Owing to the limiting role which this enzyme plays in the alternative route, factor D is a target for the inhibition of the complement system. The commercial substrate Z-Lys-SBzl*HCl is converted by the enzyme factor D (literature: Kam, C. M. et al., J. Biol. Chem. 262, 1987, 3444-3451). The detection of the cleaved substrate is effected by reaction with Ellmann's reagent. The product formed is detected spectrophotometrically. The reaction can be monitored online. This permits measurements of enzyme kinetics. [table] The batches are pipetted together into microtiter plates. After mixing of buffer, substrate and Ellmann's reagent (possibly inhibitors), the enzyme reaction is started by adding in each case 5 μl of factor D. Incubation takes place at room temperature for 60 minutes. Measurement at 405 nm for 1 hour at 3 minute intervals The result is plotted graphically. […]

[1] = molecular target: T2, C1s from human plasma, activated, two-chain form (Homo sapiens, UniProt P09871); assay: Color substrate test for C1s inhibition (Example B); conditions: amidolytic C1s activity, substrate Cbz-Gly-Arg-S-Bzl; read-out: C1S IC50 according to Example B
T2 construct: from tissue; host or cells: human plasma
T2 sequence (P09871 16-437 partner limits assumed): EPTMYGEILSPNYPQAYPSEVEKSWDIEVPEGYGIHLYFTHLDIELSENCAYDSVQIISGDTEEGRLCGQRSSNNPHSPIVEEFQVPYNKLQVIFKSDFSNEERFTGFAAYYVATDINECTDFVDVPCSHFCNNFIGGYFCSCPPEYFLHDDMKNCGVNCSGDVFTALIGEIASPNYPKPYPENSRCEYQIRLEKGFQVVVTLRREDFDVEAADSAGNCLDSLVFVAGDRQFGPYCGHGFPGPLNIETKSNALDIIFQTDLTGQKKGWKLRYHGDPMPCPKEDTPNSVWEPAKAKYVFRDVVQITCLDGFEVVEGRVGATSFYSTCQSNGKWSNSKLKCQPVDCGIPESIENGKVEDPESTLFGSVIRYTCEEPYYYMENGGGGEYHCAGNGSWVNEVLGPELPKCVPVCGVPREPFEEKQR
T2 sequence (P09871 438-688 limits assumed): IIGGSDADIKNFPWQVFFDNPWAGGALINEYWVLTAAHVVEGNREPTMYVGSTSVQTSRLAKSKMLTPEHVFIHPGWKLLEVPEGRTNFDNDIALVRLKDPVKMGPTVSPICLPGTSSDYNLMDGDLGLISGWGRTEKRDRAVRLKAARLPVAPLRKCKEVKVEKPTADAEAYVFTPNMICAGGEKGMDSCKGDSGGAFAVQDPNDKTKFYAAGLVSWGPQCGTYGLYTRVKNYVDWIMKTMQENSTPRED
Text: Material and Methods: Color Subrate Test for C1s Inhibition

[2] = molecular target: T3, C1r from human plasma, activated, two-chain form (Homo sapiens, UniProt P00736); assay: Color substrate test for C1r inhibition (Example A); conditions: amidolytic C1r activity, substrate Cbz-Gly-Arg-S-Bzl; read-out: C1R IC50 according to Example A
T3 construct: from tissue; host or cells: human plasma
T3 sequence (P00736 18-463 partner limits assumed): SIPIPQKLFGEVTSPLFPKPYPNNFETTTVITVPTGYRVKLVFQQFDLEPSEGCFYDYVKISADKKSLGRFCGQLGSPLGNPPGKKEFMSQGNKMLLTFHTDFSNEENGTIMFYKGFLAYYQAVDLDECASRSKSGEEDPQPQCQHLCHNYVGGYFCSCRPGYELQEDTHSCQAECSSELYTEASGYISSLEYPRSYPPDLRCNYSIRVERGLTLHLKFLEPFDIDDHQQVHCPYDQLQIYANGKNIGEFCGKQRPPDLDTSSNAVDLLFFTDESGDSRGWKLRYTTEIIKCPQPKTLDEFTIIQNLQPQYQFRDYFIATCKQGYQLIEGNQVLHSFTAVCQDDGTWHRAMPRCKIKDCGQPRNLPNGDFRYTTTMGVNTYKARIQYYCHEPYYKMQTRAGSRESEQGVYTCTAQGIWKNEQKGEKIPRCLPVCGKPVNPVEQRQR
T3 sequence (P00736 464-705 limits assumed): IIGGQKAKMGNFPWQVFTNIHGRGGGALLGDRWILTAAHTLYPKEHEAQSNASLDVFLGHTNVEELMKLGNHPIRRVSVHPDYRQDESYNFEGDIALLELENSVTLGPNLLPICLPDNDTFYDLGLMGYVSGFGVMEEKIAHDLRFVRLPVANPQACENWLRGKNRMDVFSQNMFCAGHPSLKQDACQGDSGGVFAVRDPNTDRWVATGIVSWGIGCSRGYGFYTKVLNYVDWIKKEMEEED
Text: Color Substrate Test for C1r Inhibition

T1 sequence (P00746 26-253): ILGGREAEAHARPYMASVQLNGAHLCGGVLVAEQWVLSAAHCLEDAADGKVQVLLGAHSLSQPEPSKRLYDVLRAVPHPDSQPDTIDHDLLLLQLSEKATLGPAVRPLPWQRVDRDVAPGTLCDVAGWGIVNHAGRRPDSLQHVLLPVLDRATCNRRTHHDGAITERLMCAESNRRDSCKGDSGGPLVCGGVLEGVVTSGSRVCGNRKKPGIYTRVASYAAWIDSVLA

Row | Compound | inhibition of factor D (factor D) | IC50 [1] [µM] | IC50 [2] [µM]
1 | COC(=O)CS(=O)(=O)N[C@@H](C(=O)N1CCC[C@H]1C(=O)NCc1ccc(C(=N)N)nc1)C1CCCCC1 [Example 17, CH3OOC—CH2—SO2-(D)Chg-Pro-NH-3-(6-am)-pico.CH3COOH] |  | 4 | 40
2 | N=C(N)c1ccc(CNC(=O)[C@@H]2C=CCN2C(=O)[C@H](NCC(=O)O)C2CCCCC2)cn1 [Example 18, HOOC—CH2-(D)Chg-Pyr-NH-3-(6-am)-pico.CH3COOH] |  | 7 | 10
3 | N=C(N)c1csc(CNC(=O)[C@@H]2CCN2C(=O)[C@H](NCC(=O)O)C2CCCCC2)c1 [Example 39, HOOC—CH2-(D)Chg-Aze-NH—CH2-5-(3-am)-thioph] |  | 10 | 2
4 | N=C(N)c1csc(CNC(=O)[C@@H]2C=CCN2C(=O)C(NCC(=O)O)C2CCCC2)c1 (stereo partly drawn) [Example 42, HOOC—CH2-Cpg-Pyr-NH—CH2-5-(3-am)-thioph.CH3COOH] |  | 1 | 0.7
5 | N=C(N)c1ccc(CNC(=O)[C@@H]2CCCN2C(=O)[C@@H](Cc2ccccc2)NS(=O)(=O)c2cccnc2)cc1 [Example 3, 3-Py-SO2-(D)Phe-Pro-NH-p-amb.CH3COOH] |  | 30 | > 100
6 | HOOC—CH2-(D,L)Cpg-Pyr-NH—CH2-5-(3-Me-3-am)-thioph.CH3COOH [Example 52] |  | 4 | 10
7 | CC1CCN[C@@H](C(=O)N2CCC[C@H]2C(=O)NCc2ccc(C(=N)N)cc2)C1 (stereo partly drawn) [Example 10, (D)(4-Me)Pic-Pro-NH-p-amb.2CH3COOH] |  | 20 | > 100
8 | N=C(N)c1ccc(CNC(=O)[C@@H]2C=CCN2C(=O)[C@@H](CC2CCCCC2)NCC(=O)O)s1 [Example 32, HOOC—CH2-(D)Cha-Pyr-NH—CH2-5-(2-am)-thioph.CH3COOH] |  | 30 | 10
9 | N=C(N)c1csc(CNC(=O)C2C=CCN2C(=O)C(NCC(=O)O)C2CCCCC2)c1Cl (stereo not drawn) [Example 49, HOOC—CH2-(D)Chg-Pyr-NH—CH2-5-(4-Cl-3-am)-thioph.CH3COOH] |  | 1 | 1
10 | N=C(N)c1ccc(CNC(=O)[C@@H]2CSCN2C(=O)[C@@H](CC2CCCCC2)NCC(=O)O)s1 [Example 33, HOOC—CH2-(D)Cha-Thz-4-CO—NH—CH2-5-(2-am)-thioph.2HCl] |  | 40 | 40
11 | HOOC—CH2-(D)Cha-Pyr-NH—CH2-5-(3-Me-2-am)-thioph.CH3COOH [Example 53] |  | 20 | 8

Now from value to compound:

Row | inhibition of factor D (factor D) | IC50 [1] [µM] | IC50 [2] [µM] | Compound
12 | effective inhibitor |  |  | N=C(N)c1ccc2cc(OC(=O)c3ccc(N=C(N)N)cc3)ccc2c1 [FUT-175]
13 |  | 5 | 10 | N=C(N)c1csc(CNC(=O)[C@@H]2C=CCN2C(=O)[C@@H](CC2CCCCC2)NCC(=O)O)c1 [Example 38, HOOC—CH2-(D)Cha-Pyr-NH—CH2-5-(3-am)-thioph.CH3COOH]
14 |  | 20 | 40 | N=C(N)c1csc(CNC(=O)C2SCCN2C(=O)[C@@H](CC2CCCCC2)NCC(=O)O)c1 (stereo partly drawn) [Example 46, HOOC—CH2-(D)Cha-Thz-2-CO—NH—CH2-5-(3-am)-thioph.2HCl]
15 |  | 2 | > 100 | N=C(N)c1ccc(CNC(=O)[C@@H]2CCCN2C(=O)[C@H](NCCCCC(=O)O)C2CCCCC2)cn1 [Example 26, HOOC—(CH2 )4-(D)Chg-Pro-NH-3-(6-am)-pico.CH3COOH]
16 |  | 20 | 70 | N=C(N)c1coc(CNC(=O)[C@@H]2CCCN2C(=O)[C@@H](CC2CCCCC2)NCC(=O)O)c1 [Example 34, HOOC—CH2-(D)Cha-Pro-NH—CH2-5-(3-am)-fur.CH3COOH]
17 |  | 6 | > 100 | N=C(N)c1ccc(CNC(=O)[C@@H]2CCCN2C(=O)CNC(=O)CCc2ccccc2)cc1 [Example 8, C6H5—CH2—CH2—CO-Gly-Pro-NH-p-amb.HI]
18 |  | 10 | 6 | N=C(N)c1csc(CNC(=O)[C@@H]2CCCN2C(=O)[C@H](NCC(=O)O)C2CCCCC2)c1 [Example 43, HOOC—CH2-(D)Chg-Pro-NH—CH2-5-(3-am).thioph.2HCl]
